29 compounds from ChEMBL document CHEMBL1140081 (J Med Chem, 2008) can be followed below.

SMILES strings stand for the structures. A value given as a limit tells only on which side of the number the result lay.

Data set [1] has as its system Human immunodeficiency virus 1. In words: Antiviral activity against HIV1 3B in human MT4 cells in presence of 50% normal human serum. The conditions noted are these: Human immunodeficiency virus 1, 3B, MT4; read-out: CIC95. Format: functional.
Data set [2] relates to Human immunodeficiency virus 1. Briefly: Antiviral activity against HIV1 3B in human MT4 cells in presence of 10% heat-inactivated fetal bovine serum. Conditions: Human immunodeficiency virus 1, 3B, read-out: CIC95.
Data set [3] has as its system Human immunodeficiency virus 1. Briefly: Antiviral activity against HIV1 with integrase T66I/M154 mutation by single cycle infectivity assay in presence of 10%FBS. The format is functional.
Data set [4] relates to Human immunodeficiency virus 1. In words: Antiviral activity against HIV1 with integrase T66I/S153Y mutation by single cycle infectivity assay in presence of 10%FBS. The format is functional.
Data set [5] concerns Human immunodeficiency virus 1. In words: Antiviral activity against HIV1 with integrase N155S mutation by single cycle infectivity assay in presence of 10%FBS. The format is functional.
Data set [6] concerns Human immunodeficiency virus 1. In words: Antiviral activity against HIV1 with integrase T125K/F121Y mutation by single cycle infectivity assay in presence of 10%FBS. The format is functional.
The test system of data set [7] is Human immunodeficiency virus 1. In words: Antiviral activity against HIV1 with integrase T66I/L74M/V151I mutation by single cycle infectivity assay in presence of 10%FBS. Format: functional.
A short description of data set [8]: Cmax in po dosed Sprague-Dawley rat. The format is ADME, organism-based. Also noted: route oral. The conditions noted are these: in vivo.
Data set [9] can be described thus: AUC in Sprague-Dawley rat at 3 mg/kg, po. Format: ADME, organism-based. Also noted: dose 3 mg/kg, route oral. Conditions: plasma.
Data set [10] in a line: Protein binding in Sprague-Dawley rat plasma. Format: ADME, cell-free. Conditions: read-out: PPB (converted).
Data set [11] is described as follows: Protein binding in dog plasma. Format: ADME, cell-free, Canis lupus familiaris. The conditions noted are these: read-out: PPB (converted).
Data set [12] is described as follows: Protein binding in rhesus monkey plasma. Conditions: read-out: PPB (converted). Format: ADME, cell-free, Macaca mulatta.
Data set [13] can be described thus: Protein binding in human plasma. Conditions: read-out: PPB (converted). Format: ADME, cell-free.
Data set [14] addresses Human immunodeficiency virus type 1 integrase (Human immunodeficiency virus 1, UniProt Q7ZJM1). In words: Inhibition of HIV1 recombinant integrase strand transfer activity.
A short description of data set [15]: Oral bioavailability in po dosed Sprague-Dawley rat. The format is ADME, organism-based. Conditions: in vivo.
Data set [16] is described as follows: Oral bioavailability in po dosed dog. The format is ADME, organism-based, Canis lupus familiaris. Conditions: in vivo.
A short description of data set [17]: Cmax in Sprague-Dawley rat at 3 mg/kg, po. Format: ADME, organism-based. Also noted: dose 3 mg/kg, route oral. Conditions: in vivo.
Data set [18] can be described thus: Cmax in dog at 10 mg/kg, po. Format: ADME, organism-based, Canis lupus familiaris. Also noted: dose 10 mg/kg, route oral. Conditions: in vivo.
Data set [19] is described as follows: Terminal half life in po dosed Sprague-Dawley rat. The conditions noted are these: in vivo. The format is ADME, organism-based.
The nature of data set [20]: Terminal half life in dog at 10 mg/kg, po. The format is ADME, organism-based, Canis lupus familiaris. Also noted: dose 10 mg/kg, route oral. Conditions: in vivo, read-out: beta t1/2 (converted).
Data set [21] in a line: AUC in dog at 10 mg/kg, po. Format: ADME, organism-based, Canis lupus familiaris. Also noted: dose 10 mg/kg, route oral. The conditions noted are these: plasma.
Data set [22] in a line: Plasma concentration in dog at 10 mg/kg, po after 12 hrs. Format: ADME, organism-based, Canis lupus familiaris. Also noted: dose 10 mg/kg, route oral.

Chain of Human immunodeficiency virus type 1 integrase (Q7ZJM1 whole entry): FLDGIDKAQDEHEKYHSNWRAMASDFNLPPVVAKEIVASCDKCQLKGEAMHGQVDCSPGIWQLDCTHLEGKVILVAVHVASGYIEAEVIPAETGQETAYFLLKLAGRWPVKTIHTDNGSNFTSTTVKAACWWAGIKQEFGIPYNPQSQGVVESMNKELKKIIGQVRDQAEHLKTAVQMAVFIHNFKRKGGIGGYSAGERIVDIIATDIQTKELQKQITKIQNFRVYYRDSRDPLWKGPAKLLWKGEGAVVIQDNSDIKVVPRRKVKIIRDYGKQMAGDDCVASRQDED

On to `CN(C)C(C)(C)c1nc(O)c(O)c(C(=O)NCc2ccc(F)cc2)n1`, for which the IC95 in data set [1] was 0.078 µM; in data set [2], 0.06 µM.
Taken in the same sequence, the figures for `CN1CCOCC1c1nc(C(=O)NCc2ccc(F)cc2)c(O)c(=O)n1C` (stereo not drawn) were 0.1 µM and 0.06 µM.
`O=C(NCc1ccc(F)cc1)c1nc(N2CCCCS2(=O)=O)c2cccnc2c1O`: the Activity in data set [3] was 3%; in [4], 1.3%; in [5], 10%; in [6] it was 12%; in [7], 9%.
Broadly, the Cmax is the maximum level reached in the sampled fluid or tissue. As usually defined, the AUC is concentration integrated over time. `Cc1nnc(C(=O)NC(C)(C)c2nc(C(=O)NCc3ccc(F)cc3)c([O-])c(=O)n2C)o1.[Na+]` gave a Cmax in [8] of 1 µM. Besides, in data set [9], the AUC is 1400 nM·h. The fraction unbound in [10] was 0.74; in data set [11], 0.71; in data set [12], 0.85; in data set [13], 0.83.
What is called IC50 is the concentration at which inhibition is half-maximal. On to `Cn1c(C(C)(C)NC(=O)c2cccnn2)nc(C(=O)NCc2ccc(F)cc2)c(O)c1=O`, for which, in data set [14], the IC50 worked out at 0.015 µM. The IC95 was 0.5 µM in [1] and 0.062 µM in data set [2].
On to `Cn1c(C(C)(C)NC(=O)c2cnco2)nc(C(=O)NCc2ccc(F)cc2)c(O)c1=O`, for which, in data set [14], the IC50 was 0.007 µM. Besides, the IC95 in data set [1] and in data set [2] was 0.5 µM in each case.
For `Cn1c(C(C)(C)NC(=O)c2cscn2)nc(C(=O)NCc2ccc(F)cc2)c(O)c1=O`, in data set [14], the IC50 was found to be 0.008 µM. Moreover, the IC95 in [1] was 0.312 µM; in data set [2], less than 0.078 µM.
For the compound `CN(C)C(=O)C(=O)NC(C)(C)c1nc(C(=O)NCc2ccc(F)c(Cl)c2)c(O)c(=O)n1C`, the IC50 in [14] was determined as 0.009 µM. The IC95 in [1] came to 0.13 µM; in data set [2] it was 0.031 µM.
Taken in the same sequence, the figures for `Cn1c(C(C)(C)NC(=O)c2ccccn2)nc(C(=O)NCc2ccc(F)cc2)c(O)c1=O` were 0.02 µM, 1 µM and 0.125 µM.
Consider `COc1cccc(CNC(=O)c2nc(C(C)(C)NC(=O)C(=O)N(C)C)n(C)c(=O)c2O)c1OC`, for which the IC50 in data set [14] turned out to be 0.021 µM. Further, the IC95 in data set [1] is greater than 1 µM; in [2], 1 µM.
Turning to `Cn1c(C(C)(C)NC(=O)c2c[nH]cn2)nc(C(=O)NCc2ccc(F)cc2)c(O)c1=O`, the IC50 in [14] amounted to 0.006 µM. Also, the IC95 in [1] and in [2] was 0.25 µM in each case.
In general, bioavailability refers to the share of a dose that reaches the circulation, judged against a reference dose that is usually intravenous. For the compound `CN(C)C(=O)C(=O)NC(C)(C)c1nc(C(=O)NCc2ccc(F)cc2)c([O-])c(=O)n1C.[Na+]`, the IC95 in [1] was 0.125 µM. In addition, the bioavailability in data set [15] turned out to be 36%; in data set [16], 93%. The Cmax in data set [17] is 4.1 µM; in data set [18], 32 µM. The half-life in data set [19] is 2.3 h; in data set [20], 11.9 h. Further, the AUC in data set [9] turned out to be 2200 nM·h; in [21], 47000 nM·h. The fraction unbound in [10] was 0.65; in data set [11] it was 0.62; in [12], 0.82; in data set [13], 0.72. In addition, in data set [22], the concentration at 12 h was determined as 0.246 µM.
Regarding `Cn1c(C(C)(C)N2CCOCC2)nc(C(=O)NCc2ccc(F)cc2)c(O)c1=O`, in data set [14], the IC50 came to 0.003 µM. Moreover, the IC95 in data set [1] was 0.5 µM; in data set [2], 0.065 µM.
On the same counts, the results for `CN(C)C1(c2nc(C(=O)NCc3ccc(F)cc3)c(O)c(=O)n2C)CCOCC1` are 0.002 µM, 1 µM and 0.25 µM.
In the case of `CC(=O)NC(C)(C)c1nc(C(=O)NCc2ccc(F)cc2)c(O)c(=O)n1C`, the IC50 in data set [14] turned out to be 0.007 µM. The figures for the IC95 in data set [1] and in data set [2] were 0.4 µM and 0.31 µM, respectively.
Take `CN1CCN(C(=O)C(=O)NC(C)(C)c2nc(C(=O)NCc3ccc(F)cc3)c(O)c(=O)n2C)CC1`: in data set [14], the concentration for half-maximal inhibition (IC50) is 0.026 µM. Moreover, the IC95 in data set [1] was determined as 0.25 µM; in [2], 0.125 µM.
As for `CNC(=O)c1nc(C(C)(C)NC(=O)C(=O)N(C)C)n(C)c(=O)c1O`, the IC50 in data set [14] is greater than 5 µM. The IC95 in data set [1] and in data set [2] was greater than 10 µM throughout.
As to `CN(C)C(C)(C)c1nc(C(=O)NCc2ccc(F)cc2)c(O)c(=O)n1C`, the IC50 in [14] was 0.23 µM. Moreover, the IC95 in data set [1] was greater than 1 µM; in [2] it was 1 µM.
As for `CN(C)S(=O)(=O)NC(C)(C)c1nc(C(=O)NCc2ccc(F)cc2)c(O)c(=O)n1C`, in [14], the IC50 came to 0.012 µM. Also, the IC95 in data set [1] stood at 0.5 µM; in [2] it was 0.125 µM.
As for `CN(C)C(=O)C(=O)N(C)C(C)(C)c1nc(C(=O)NCc2ccc(F)cc2)c(O)c(=O)n1C`, in data set [14], the IC50 was found to be 0.015 µM. For the same compound, the IC95 amounted to 0.125 µM in data set [1] and 0.062 µM in data set [2].
Taken in the same sequence, the figures for `COC(=O)C(=O)NC(C)(C)c1nc(C(=O)NCc2ccc(F)cc2)c(O)c(=O)n1C` were 0.015 µM, greater than 1 µM and 1 µM.
In the case of `CN(C)C(=O)NC(C)(C)c1nc(C(=O)NCc2ccc(F)cc2)c(O)c(=O)n1C`, the IC50 in data set [14] turned out to be 0.018 µM. For the same compound, the IC95 in data set [1] was greater than 1 µM; in [2], 1 µM.
Regarding `Cn1c(C(C)(C)NC(=O)C(=O)N2CCOCC2)nc(C(=O)NCc2ccc(F)cc2)c(O)c1=O`, the IC50 in data set [14] was 0.02 µM. The IC95 in data set [1] and in [2] was 0.125 µM each time.
In the case of `Cc1nnc(C(=O)NC(C)(C)c2nc(C(=O)NCc3ccc(F)cc3)c(O)c(=O)n2C)[nH]1`, the IC50 in [14] stood at 0.004 µM. The IC95 worked out at 1 µM in [1] and 0.25 µM in data set [2].
Taken in the same sequence, the figures for `CN(C)C(=O)C(=O)NC(C)(C)c1nc(C(=O)NCc2ccc(F)cc2S(C)(=O)=O)c(O)c(=O)n1C` were 0.004 µM, 0.125 µM and 0.125 µM.
`Cn1c(C(C)(C)NC(=O)c2ncccn2)nc(C(=O)NCc2ccc(F)cc2)c(O)c1=O`: in data set [14], the IC50 worked out at 0.007 µM. Further, the values for the IC95 in data set [1] and in [2] were 0.05 µM and 0.02 µM, respectively.
As to `Cn1c(C(C)(C)NC(=O)C(=O)O)nc(C(=O)NCc2ccc(F)cc2)c(O)c1=O`, the IC50 in [14] was found to be 0.004 µM. The IC95 in data set [1] turned out to be 1 µM; in data set [2], 0.25 µM.
In the case of `Cn1c(C(C)(C)NS(C)(=O)=O)nc(C(=O)NCc2ccc(F)cc2)c(O)c1=O`, the IC50 in data set [14] turned out to be 0.008 µM. Further, the IC95 in data set [1] amounted to 1 µM; in data set [2], 0.062 µM.
Take `O=C(/C=C(\O)c1nc[nH]n1)c1ccc(Cc2ccc(F)cc2)o1` [S-1360]: the Activity in data set [3] is 20%; in data set [4] it was 50%; in data set [5] it was greater than 50%; in [6], 50%; in data set [7] it was 100%.
